From patent US7238689B2, “Isoxazoline derivative and herbicide comprising the same as active ingredient” (Ihara Chemical Industry Co., Ltd., priority 2001, dated 2007)

Key:
Type in all cases: in vivo
Design in all cases: scale not given here
[1] = tested on: Echinochloa crus-galli (L.) Beauv. var. crusgalli; test: Herbicidal effect by upland field soil treatment; conditions: active ingredient 1000 g/ha, examined at 21st day from treatment
Text: (§1) An upland field soil was filled in a plastic pot of 80 cm^2. Seeds of Echinochloa crus-galli (L.) Beauv. var. crusgalli and Setaria viridis (L.) Beauv. were sowed, followed by covering with the same soil. […] Then, breeding was made in a greenhouse, and the herbicidal effect of each wettable powder was examined at the 21st day from the treatment in accordance with the standard shown in Table 21.

[2] = tested on: Setaria viridis (L.) Beauv.; test: Herbicidal effect by upland field soil treatment; conditions: active ingredient 1000 g/ha, examined at 21st day from treatment
Text: as §1

[3] = tested on: Echinochloa oryzicola Vasing; test: Herbicidal effect by paddy field soil treatment; conditions: wettable powder, active ingredient 1000 g/ha, examined at the 21st day from the treatment
Experimental: (§2) A paddy field soil was filled in a plastic pot of 100 cm^2 and subjected to puddling. Then, seeds of Echinochloa oryzicola Vasing and Monochoria vaginalis (Murm. f.) Presl var. plantaginea (Roxb.) Solms-Laub. were sowed and water was filled in a depth of 3 cm. Next day, wettable powders produced in accordance with the Formulation 1 were diluted with water and dropped on the water surface. The application amount of each wettable powder was 1,000 g per 1 hectare in terms of the active ingredient. Then, breeding was made in a greenhouse, and the herbicidal effect of each wettable powder was examined at the 21st day from the treatment in accordance with the standard shown in Table 21.

[4] = tested on: Monochoria vaginalis (Murm. f.) Presl var. plantaginea (Roxb.) Solms-Laub.; test: Herbicidal effect by paddy field soil treatment; conditions: wettable powder, active ingredient 1000 g/ha, examined at the 21st day from the treatment
Experimental: as §2

SMILES | herbicidal effect (index per standard of Table 21), Echinochloa curs-galli (L.) Beauv. Var. crus-galli [1] | herbicidal effect (index per standard of Table 21), Setaria viridis (L.) Beauv. [2] | Herbicidal effect index, Echinochloa oryzicola Vasing [3] | Herbicidal effect index, Monochoria vaginalis (Burm. F.) Presl var. plantaginea (Roxb.) Solms-Laub. [4]
CCOC(=O)Cn1nc(C(F)(F)F)c(CS(=O)(=O)C2=NOC(C)(C)C2)c1Cl [3-0136] | 5 | 5 | – | –
CC1(C)CC(S(=O)(=O)Cc2c(C(F)(F)F)nn(CC(N)=O)c2Cl)=NO1 [3-0138] | 4 | 5 | – | –
CC(=O)Cn1nc(C(F)(F)F)c(CS(=O)(=O)C2=NOC(C)(C)C2)c1Cl [3-0142] | 5 | 5 | – | –
CC(=O)Cn1nc(Cl)c(CS(=O)(=O)C2=NOC(C)(C)C2)c1C(F)(F)F [3-0143] | 5 | 5 | – | –
CC1(C)CC(S(=O)(=O)Cc2c(C(F)(F)F)nn(-c3ccccc3)c2OC(F)F)=NO1 [3-0160] | – | – | 5 | 5
CC1(C)CC(S(=O)(=O)Cc2c(C(F)(F)F)nn(S(=O)(=O)c3ccccc3)c2Cl)=NO1 [3-0176] | – | – | 5 | 5
CC(=O)n1nc(C(F)(F)F)c(CS(=O)(=O)C2=NOC(C)(C)C2)c1Cl [3-0177] | – | – | 5 | 5
CC1(C)CC(S(=O)(=O)Cc2c(C(F)(F)F)nn(C(=O)c3ccccc3)c2Cl)=NO1 [3-0178] | – | – | 5 | 5
Cc1onc(C(F)(F)F)c1CS(=O)(=O)C1=NOC(C)(C)C1 [4-0001, 5,5-dimethyl-3-(5-methyl-3-trifluoromethylisoxazol-4-ylmehtylsulfonyl)-2-isoxazoline] | – | – | 5 | 5
CCOc1onc(C(F)(F)F)c1CS(=O)(=O)C1=NOC(C)(C)C1 [4-0006] | 5 | 5 | – | –
CC1(C)CC(S(=O)(=O)Cc2nn(C(F)F)c3c2CCCC3)=NO1 [6-0001] | 5 | 5 | – | –
CC1(C)CC(S(=O)(=O)Cc2c[n+]([O-])ccc2C(F)(F)F)=NO1 [7-0002, 5,5-dimethyl-3-(4-trifluoromethyl-pyridine-N-oxide-3-ylmethylsulfonyl)-2-isoxazoline] | 5 | 5 | – | –
COc1c(CS(=O)(=O)C2=NOC(C)(C)C2)c(-c2ccccc2)cc[n+]1[O-] [7-0007] | 5 | 4 | – | –
CCOc1ncnc(C(F)(F)F)c1CS(=O)(=O)C1=NOC(C)(C)C1 [8-0004] | 5 | 5 | – | –
COc1ncnc(OC)c1CS(=O)(=O)C1=NOC(C)(C)C1 [8-0005] | 5 | 4 | – | –
COc1nc(OC)c(CS(=O)(=O)C2=NOC(C)(C)C2)c(C(F)(F)F)n1 [8-0007] | 5 | 5 | – | –
CC1(C)CC(S(=O)(=O)Cc2ccncc2)=NO1 [9-0003] | – | – | 5 | 5
CC1(C)CC(S(=O)(=O)Cc2nc(Cc3ccccc3)no2)=NO1 [9-0007] | 4 | 4 | – | –
CC1(C)CC(S(=O)(=O)Cc2cc3ccccc3s2)=NO1 [10-0002] | – | – | 5 | 4
CC1(C)CC(S(=O)(=O)Cc2csc3ccc(Cl)cc23)=NO1 [10-0008] | – | – | 5 | 5
CC1(C)CC(S(=O)(=O)Cc2sc3ccccc3c2Br)=NO1 [10-0011] | – | – | 5 | 5
